Measured values reported in patent US12377087B2, “Compounds for the treatment of cancer” (UNIVERSITY OF LOUISVILLE RESEARCH FOUNDATION, INC., priority 2015, dated 2025).

What was measured:
H460 cells [1] = assay: F2,6BP measurements in H460 cells; assay type: cell-based, human; settings: H460, indicated concentrations of MPN-2
Method: F2,6BP measurements: Cells or tissues were prepared as previously described and F2,6BP content measured using a coupled enzyme reaction following the method of Van Schaftingen et at (Van Schaftingen E et al. A kinetic study of pyrophosphate: fructose-6-phosphate phosphotransferase from potato tubers. Application to a microassay of fructose 2,6-bisphosphate. Eur J Biochem 1982 December; 129(1): 191-5) and normalized to total cellular protein measured by the bicinchoninic acid assay (BCA, Thermo Scientific). […] In order to measure F2,6BP, cells were harvested, washed with PBS, lysed in NaOH/Tris acetate by heating at 80° C. and lysates neutralized to pH 7.2. F2,6BP content was measured using a coupled enzyme reaction following the method of Van Schaftingen et al (Eur J Biochem. 1982; 129(1): 191-195). The F2,6BP concentration was normalized to total cellular protein measured by the bicinchoninic acid assay (BCA, Thermo Scientific) All data are expressed as the mean±SD of three experiments. Statistical significance was assessed by the two-sample t test (independent variable).

H460 cells [2] = assay: Glycolysis assay (3H2O from 5-[3H]glucose) in H460 cells; assay type: cell-based, human; settings: H460, indicated concentrations of MPN-2, 48 hours
Method: Cells growing in 6-well plates were incubated in 500 μl of complete medium containing 1 μCi of 5-[^3H]glucose per well for 60 min in 5% CO2 at 37° C. Media was collected, ^3H2O formed via glycolysis from the 5-[^3H]glucose measured and counts normalized as previously described. For example, the medium was then collected and centrifuged to pellet any suspended cells. To separate the ^3H2O formed via glycolysis from the 5-[^3H]glucose added to the medium, an evaporation technique in a sealed system was utilized. Briefly, 150 μl aliquots of medium were added to open tubes that were placed upright inside scintillation vials containing 1 ml of H2O. The scintillation vials were sealed, and the ^3H2O produced by glycolysis through enolase and released to the medium was allowed to equilibrate with the H2O in the outer vial for 48 h at 37° C. The amounts of ^3H2O that had diffused into the surrounding H2O was measured on a Tri-Carb 2910 liquid scintillation analyzer (Perkin Elmer) and compared with ^3H2O and 5-[^3H]glucose standards. Protein concentration was determined using the BCA assay and counts were normalized to protein concentration. All data are expressed as the mean±SD of three experiments. Statistical significance was assessed by the two-sample t test (independent variable).

H460 cells [3] = assay: ATP measurements in H460 cells; assay type: cell-based, human; settings: H460, indicated concentrations of MPN-2, 48 hours
Method: Cells were lysed and intracellular ATP determined as described previously. For example, cells were washed (while still adherent) with cold PBS 1×, lysed with Passive Lysis Buffer (1×; Molecular Probes, Invitrogen) added directly to the plates, and immediately harvested by scraping. The lysates were flash frozen (to −80° C.) and thawed (to 37° C.) once to accomplish complete lysis and then centrifuged (at 4° C.) for 30 seconds to clear the lysates. Intracellular ATP levels were determined using a bioluminescence assay (Molecular Probes), utilizing recombinant firefly luciferase and its substrate, D-luciferin. The luminescence was read in a TD-20/20 luminometer (Turner Designs) at 560 nm. The ATP values were calculated using an ATP standard curve. The protein concentrations of the lysates were estimated using the BCA assay (Pierce Biotechnology) and ATP was expressed as pmol/μg protein. All data are expressed as the mean±SD of three experiments. Statistical significance was assessed by the two-sample t test (independent variable).

H460 cells [4] = assay: proliferation / viable cell count (trypan blue) of H460 cells; assay type: cell-based, human; settings: for proliferation of H460 NSCLC cells, viable cells by Trypan blue exclusion: increasing concentrations, counts at 48 hours shown
Method: Cell Viability: Cells were incubated in 20% trypan blue (Sigma) for 5 minutes. Cells excluding trypan blue were counted using a standard hemocytometer (Hausser Scientific) to determine total numbers of viable cells. Data are expressed as mean±SD of three experiments. Proliferation Assays: H460 non-small cell lung cancer cells were plated in 24 well plates and exposed to increasing concentrations of the indicated inhibitors of Formula IV (FBR1-02 corresponds to [drawing 47] DMSO was used as vehicle. After 24, 48 and 72 hours of exposure, cells were detached and viable cells were counted by Trypan blue exclusion (representative counts at 48 hours shown).

SK-BR-3 = assay: proliferation of SK-BR-3 cells; assay type: cell-based; settings: SK-BR-3, 24-72 hours (72 hours shown)
Method: Cell Viability: Cells were incubated in 20% trypan blue (Sigma) for 5 minutes. Cells excluding trypan blue were counted using a standard hemocytometer (Hausser Scientific) to determine total numbers of viable cells. Data are expressed as mean±SD of three experiments.

[5] = oral and intravenous pharmacokinetics of MPN-2; assay type: in vivo; settings: CD-1 mice (N=3)
Lewis lung carcinomas = assay: Lewis lung carcinoma tumor growth in mice; assay type: in vivo, C57BL/6 mice; settings: C57BL/6 mice, intraperitoneal injection 10 mg/kg daily, eleven days

5-[(8-methoxy-2-methylquinolin-1-ium-4-yl)amino]pentyl nitrate [MPN-2]
F2,6BP production (H460 cells [1]): significantly inhibited
intracellular glycolysis (H460 cells [2]): significantly decreased
ATP production (H460 cells [3]): significantly decreased
proliferation (H460 cells [4]; H460, 24-72 hours (72 hours shown)): decreased proliferation
proliferation, viable cells (H460 cells [4]; H460 NSCLC, 48 hours and 72 hours): decreased the proliferation
proliferation (SK-BR-3): decreased proliferation
oral bioavailability [5]: high oral bioavailability
tumor growth of Lewis lung carcinomas (Lewis lung carcinomas): suppressed the growth

O=[N+]([O-])OCCCCCNc1ccnc2ccccc12 [FBR1-02]
proliferation of H460 NSCLC cells, viable cells by Trypan blue exclusion (H460 cells [4]): decreased proliferation of cancer cells

COc1cccc2c(NCCCCCNS(C)(=O)=O)ccnc12 [FBR1-09]
proliferation of H460 NSCLC cells, viable cells by Trypan blue exclusion (H460 cells [4]): decreased proliferation of cancer cells
